In the experiment the target is 5-hydroxytryptamine receptor 2A (Homo sapiens, UniProt P28223). Briefly: Agonist activity at recombinant human 5HT2A receptor expressed in Flp-In-293 cells assessed as increase in calcium influx measured for 300 secs by Fluo-4 dye based FLIPR assay.

pEC50: −log10 of the molar value.

Chain of 5-hydroxytryptamine receptor 2A (P28223 whole entry): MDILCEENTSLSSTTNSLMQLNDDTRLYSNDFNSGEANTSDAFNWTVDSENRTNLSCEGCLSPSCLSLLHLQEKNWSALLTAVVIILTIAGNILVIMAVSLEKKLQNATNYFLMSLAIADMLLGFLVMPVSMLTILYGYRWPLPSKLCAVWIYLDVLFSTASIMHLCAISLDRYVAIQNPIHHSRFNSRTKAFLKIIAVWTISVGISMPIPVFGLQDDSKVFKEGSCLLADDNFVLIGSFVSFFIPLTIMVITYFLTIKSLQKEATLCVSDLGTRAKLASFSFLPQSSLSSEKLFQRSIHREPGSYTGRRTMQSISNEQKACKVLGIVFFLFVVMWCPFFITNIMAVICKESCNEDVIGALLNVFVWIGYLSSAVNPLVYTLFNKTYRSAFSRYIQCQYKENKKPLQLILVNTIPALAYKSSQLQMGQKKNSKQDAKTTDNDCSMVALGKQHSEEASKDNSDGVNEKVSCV

As to `NC[C@H]1C[C@]1(F)c1cccc(F)c1`, the pEC50 is 8.57.

The values are drawn from BindingDB's records for doi:10.1016/j.ejmech.2019.111626 (University of Illinois At Chicago, 2019).
